According to patent US20030162803A1, “Anhydrovinblastine for the treatment of cancer” (priority 1997, published 2003):
“Also recorded” adds a separate entry of the source. Counter-ions that a name gives are not always drawn.

Tests used:
[1] = Phase I clinical trial, toxicity and MTD; type: in vivo, human patients
Protocol: Patients had normal bone marrow, hepatic and renal function. Twenty-four patients were treated with escalating doses of AHVB, administered as a 1 hour infusion every 3 weeks. The 24 patients comprised 12 male and 12 female patients with a median age of 60 years (range 27-75 years). Twenty-one of the 24 patients were evaluable. Diagnoses were non-small cell lung cancer (NSCLC), colorectal cancer, soft tissue sarcoma, pancreatic cancer, breast cancer and metastatic neuroendocrine cancer in 11, 5, 4, 1, 1, and 1 patient(s), respectively. […] A total of 51 courses were administered at doses of 2.5, 5, 10,16.5, 21,25 and 30 mg/m^2 to 1,3, 1,3, 6, 6 and 1 patient(s), respectively (see Table 4).
The first patient was entered in the trial at the 2.5 mg/m^2 dose level. […] Five patients were enrolled at the 16.5 mg/m^2 dose level because two patients were not evaluable and had to be replaced. […] Six patients were enrolled at the 25 mg/m^2 dose level. […] This dose level, therefore, exceeded the MTD.
Seven patients were enrolled at the 21 mg/m^2 dose level, but only 6 were evaluable for toxicity due to one patient developing Grade 2 hypertension, headache, nausea and vomiting at the start of the infusion, which recurred on rechallenge. This patient received only 15 ml of the drug solution and, therefore, was not evaluable to assess toxicity. […] The nausea and vomiting observed at the 21 mg/m^2 dose level was a DLT. It was determined that the 21 mg/m^2 dose is the MTD.

[2] = tested on: C-4 Human Cervical Carcinoma; assay: C-4 (cervical) solid tumor model; type: in vivo, Rag-2 mice
Protocol: Cultures of C-4 Human Cervical Carcinoma cells are available from the British Columbia Cancer Research Centre. Cells were injected subcutaneously twice into mature male Rag-2 mice (24 mice, 1×10^6 cells/mouse) using a 26-gauge needle. The C-4 cells were suspended in a Hank's Balanced Salt Solution without calcium. Tumors were allowed to form in the mice for 31 days.
When the tumors were well established, four separate groups of mice, were selected for administration of the three test articles (i.e. one group for each test article of AHVB bisulphate, AHVB ditartrate, and Navelbine™) and one control.
AHVB bisulphate and ditartrate, and Navelbine™ were solubilized using 5% dextrose saturated with Argon. These articles were administered at doses of 20 mg/Kg intravenously. Any dose dilutions were made with 5% dextrose.
The articles were administered intravenously on the days 1, 5 and 9, as were controls of 5% dextrose. Body weights and tumor measurements with calipers were taken regularly over the period of the study of 69 days.
Following administration of the test articles, the animals; weight and tumor size (using calipers) were determined regularly over the period of the study. If the tumor size reached I gram in weight or the tumor started to ulcerate, the animals were sacrificed (by carbon dioxide inhalation) and subjected to necropsy. Animals were also monitored at least daily for signs of stress for the full length of the study. Animals manifesting severe symptoms of stress (rapid weight loss, panting, hunched posture, scruffy coat) were also sacrificed and a necropsy performed.
The results of the efficacy studies are given in Table 3 and present averages of data from 6 or fewer animals. Each mouse in a given article group had two subcutaneous tumors on its back. Each tumor was measured in length and width and the volume of each tumor was calculated by […]. The two tumor volumes were then averaged. The volume averages of all the mice/group were averaged to yield a mean for each single date point. The calculation was performed each day the tumors were measured.

[3] = tested on: nerves; details: vs vinblastine, vindesine; cited from earlier work
[4] = Murine P388 model in BDF1 mice; type: in vivo; details: female, mouse, in vivo; single bolus intravenous injection, BDF1 mice bearing P388 tumors; read-out: maximum tolerated dose
Protocol: Antitumor studies on mice focussed, in one case, on the P388 leukaemia model. […] This is an ascitic tumor model that was generated by intraperitoneal inoculation of 1×10^6 P388 cells (derived from culture, with an original cell line obtained from the NCI tumor repository) in BDF1 mice (Charles Rivers). One day after tumor cell inoculation, mice were treated with a single intravenous injection of drug. Animal weight was monitored daily and tumor progression was measured as an increase in animal weight and through estimation of survival time. Therapy was described by a decrease in tumor progression and an increase in survival time relative to an untreated control group. Initial studies established the maximum therapeutic dose for AHVB. Subsequently comparative studies with vincristine and Navelbine™ were initiated where animals were treated with each drug at the maximum therapeutic dose.
The in vivo anti-tumor activity of AHVB was compared to that of vincristine, Navelbine™ in the BDF1-murine P388 model in the procedure as follows. P388 cells were derived from the ascities of previously injected female BDF1 mice (19-21 grams) P388 cells, from the NCI tumor repository were inoculated directly into mice. The cells arrive from NCI frozen in 1 ml aliquots. These samples were thawed rapidly at 37° C. and subsequently injected (within 1 hour) intraperitoneally into two mice, 0.5 ml per mouse. One week (7 days) after inoculation, the tumor cells were harvested by removing peritoneal fluid using a sterile syringe with a 22 gauge needle. The cells, pooled from two animals, were counted using a hemocytometer, diluted (RPMI media) to a concentration of 2×10^6 cells/ml and 0.5 ml was then re-injected into each of two BDF1 mice. Remaining cells were washed and placed into a DMSO containing media and frozen (in freezer packs that cool at a defined rate). This process was repeated weekly over a […]. Cells used for anti-tumor studies were collected from the third passage to the 20th passage. After the 20th passage the cells were no longer used for experimental studies. Newly established cells were derived from the frozen cells prepared as described above.
Groups (five mice per group) of female BDF1 mice (Charles Rivers, Canada) were injected (intraperitoneal) with 10^6 P388 cells (as described above). One day after tumor cell inoculation, the mice were given a bolus intravenous injection of indicated drug via the lateral tail vein. Control groups were injected with saline. Free drug samples were prepared on the day of injection such that the final concentrations were sufficient to deliver the indicated drug dose in a volume of 200 μl. All dilutions were made using 0.9% Sodium Chloride Injection USP. The mice were briefly (less than 30 sec.) restrained during intravenous injections. Dilation of the vein was achieved by holding the animals under a heat lamp for a period of between five and ten minutes. Following administration of the test articles, animals were weighed daily for fourteen days and monitored for signs of stress twice daily for the first 14 days (once daily on weekends) and once daily for the remainder of the study. Severely distressed animals were terminated by CO2 asphyxiation and the time of death was recorded to occur on the following day. Although complete dose titrations were completed for each drug, the data shown in FIG. 6 is that obtained after administration of the free drugs at their maximum tolerated dose. This was 3, 40 and 40 mg/kg for vincristine, Navelbine™ and AHVB, respectively.
After treating mice (bearing the P388 tumor) with a single dose of the indicated drug, animals were examined twice daily for the first 14 days (once daily on weekends). Weight gain in the control is an indication of tumor progression.
The studies were conducted as described for FIG. 6. […]

[5] = 20 mg/kg intravenously on days 1, 5, 9

Row | SMILES | toxicities ([1]; 5 mg/m^2, 1 hour IV infusion every 3 weeks) | toxicities ([1]; 10 mg/m^2, 1 hour IV infusion every 3 weeks) | toxicities ([1]; 16.5 mg/m^2, 1 hour IV infusion every 3 weeks) | toxicities ([1]; 21 mg/m^2, 1 hour IV infusion every 3 weeks) | toxicities ([1]; 25 mg/m^2, 1 hour IV infusion every 3 weeks) | toxicities ([1]; 30 mg/m^2, 1 hour IV infusion every 3 weeks) | MTD (maximum-tolerated dose) ([1]; 1 hour IV infusion every 3 weeks, patients) [mg/m^2] | activity compared with vincristine and vinorelbine ([2]; human tumor xenografts of cervical cancer, equitoxic doses) | uptake into nerves, times faster than the other drugs [3] [times] | MTD at 14 days [4] [mg/kg] | % Delay In Growth (Dig) [2, 5] [%] | Initial Growth (Day) Of Expt. [2, 5] [days] | Initial Growth (Day) Total [2, 5] [days] | day tumors reached observable 'growth threshold' [2, 5] [days]
1 | CCC1=C[C@H]2CN(CCc3c([nH]c4ccccc34)[C@@](C(=O)OC)(c3cc4c(cc3OC)N(C)[C@H]3[C@@](O)(C(=O)OC)[C@H](OC(C)=O)[C@]5(CC)C=CCN6CC[C@]43[C@@H]65)C2)C1 [AHVB, 3′,4′-anhydrovinblastine] | Grade 2 anorexia, hyperamylasemia, and increased serum creatinine; also recorded: One patient treated developed Grade 2 elevated amylase,; also recorded: elevated creatine and anorexia requiring an additional 2 | One patient treated with minimal toxicity | Grade 2 toxicities including infusional hypertension, anemia and dizziness; also recorded: replaced. The next patient showed Grade 2 toxicities; also recorded: two patients had minimal toxicities | Grade 3 nausea and vomiting and Grade 2 constipation; also recorded: patient exhibited Grade 3 nausea and vomiting. This does | DLTs including Grade 4 level constipation and Grade 3 nausea and vomiting; also recorded: grade 4 constipation, Grade 3 tumor pain, nausea, vomiting,; also recorded: anemia and Grade 4 neutropenia (1 patient) | One patient treated developed Grade 3 leukopenia. | 21 | superior activity to that of both vincristine and vinorelbine | – | – | – | – | – | –
2 | CC[C@]1(O)C[C@H]2CN(CCc3c([nH]c4ccccc34)[C@@](C(=O)OC)(c3cc4c(cc3OC)N(C=O)[C@H]3[C@@](O)(C(=O)OC)[C@H](OC(C)=O)[C@]5(CC)C=CCN6CC[C@]43[C@@H]65)C2)C1 [Vincristine, Sulfate of 22-oxovincaleukoblastine] | – | – | – | – | – | – | – | – | 4 | 3 | – | – | – | –
3 | CCC1=C[C@@H]2CN(C1)Cc1c([nH]c3ccccc13)[C@@](C(=O)OC)(c1cc3c(cc1OC)N(C)[C@H]1[C@@](O)(C(=O)OC)[C@H](OC(C)=O)[C@]4(CC)C=CCN5CC[C@]31[C@@H]54)C2 [Navelbine, 3′,4′-didehydro-4′-deoxy-C′-norvincaleukoblastine-di-L-tartrate] | – | – | – | – | – | – | – | – | – | 40 | 84 | 29 | 59 | 41
